Test results published in patent US20050019855A1, “Methods to increase the productivity of meterologous gene expression” (priority 2001, published 2005).

Key:
Assay type in all cases: cell-based, Nicotiana tabacum
[1] = system: tobacco protoplasts; test: Transient expression transport assay: secretion index and total activity of α-amylase cargo molecules
Source text: (§1) Tobacco leaf protoplasts were electroporated as described (Denecke and Vitale, 1995), and plasmid concentrations used are given in the figure legends. Harvesting of cells and culture medium as well as the enzymatic assays were done as described previously (Denecke and Vitale, 1995; Crofts et al., 1999; Leborgne-Castel et al., 1999). Equal volumes of cells and medium were loaded on protein gel blots or analysed via enzymatic assays to determine the fraction of the marker proteins inside and outside of the cells and to calculate the secretion index (Denecke et al., 1990). Membrane recruitment was assessed by an osmotic shock procedure described previously (Denecke et al., 1990; Denecke et al., 1992).
Protoplasts were extracted in α-amylase extraction buffer (Crofts et al., 1999) via sonication for 5 seconds. In all cases, extracts were cleared by 10 min centrifugation at 2500 g at 4° C. and the supernatant was recovered. α-amylase activity was determined as described (Crofts et al., 1999).
It is established that the molecular target of BFA is the guanosine nucleotide exchange factor for ARF1p, resulting in a stabilisation of an abortive complex with the GDP-bound form of ARF1p at the Golgi membrane. To test if inhibition of retrograde and anterograde transport can be dissected, we decided to utilise the secreted cargo molecule α-amylase (amy) and its derivative carrying an ER retention signal (amy-HDEL), which permits a quantitative analysis of transport rates in tobacco leaf protoplasts (FIGS. 1-6). We have shown before that the secretion index (SI), the ratio between extra- and intracellular activities, provides a simple way to compare relative transport rates at a defined time-point. In addition, amy and amy-HDEL have identical specific enzyme activity and stability throughout the secretory pathway. While both molecules are expected to have identical ER export properties (FIG. 16, route 1), only amy-HDEL can undergo retrograde transport from the Golgi (FIG. 16, route 2). If saturation of the HDEL receptor occurs, amy-HDEL is expected to reach the cell surface in the same manner as amy (FIG. 16, routes 3 and 7). We now tested the influence of different concentrations of BFA on the transport of either cargo molecules via transient gene expression in tobacco protoplasts. […] This effect is less obvious for amy-HDEL.

[2] = system: stably transformed tobacco cells; test: Transport time course in protoplasts from stably transformed tobacco cells incubated with BFA; settings: stable transformants, 30 μg/ml BFA, 240 minute period (FIG. 18)
Procedure: The experiment shown in FIG. 17 was conducted using a standard transient expression assay with a 24-hour incubation period. This is a long time-period and it is possible that prolonged inhibition of the recycling of essential COPII vesicle budding components leads eventually to an inhibition of anterograde transport. […] To test this, we have carried out a transport experiment in which stably transformed tobacco cells were incubated for different time-periods in the presence of BFA. Under these circumstances, protoplasts contain a steady state level of amy or amy-HDEL from the very beginning of the experiment. This steady state level is very high for amy-HDEL, thus secretion of the cargo into the medium should be detected with high sensitivity if BFA first inhibits […] retrograde transport while COPII anterograde transport is still efficient. […] It was not possible to detect a transient induction of amy-HDEL secretion prior to the inhibition of amy secretion.

[3] = system: tobacco protoplasts; test: Transient expression transport assay for phytepsin, read by protein gel blot of medium and cells; settings: increasing BFA concentration (FIG. 22)
Source text: Transient expression experiment showing the influence of BFA (indicated above each lane in μg/ml final concentration) on secretion to the medium (M), intracellular retention (C) and the partitioning between processed (closed arrows) and un-processed (open arrows) forms of phyteposin. Note that BFA inhibits both secretion and intracellular processing of phytepsin.
as §1
Samples were loaded after twofold dilution with 2×SDS-PAGE loading buffer (200 mM Tris-Cl, pH 8.8, 5 mM EDTA, 1 M sucrose, and 0.1% bromophenol blue). Proteins in SDS-polyacrylamide gels were transferred onto a nitrocellulose membrane and then blocked with PBS, 0.5% Tween 20, and 5% milk powder for 1 hr. […]

[4] = 24-hour incubation, increasing BFA concentration (FIG. 17)

For C[C@H]1CCC/C=C/[C@@H]2C[C@H](O)C[C@H]2[C@H](O)/C=C/C(=O)O1 [BFA, Brefeldin A], the “total activity (medium+cells) of amy-HDEL” value ([1]; 24-hour incubation, BFA present (FIG. 17 lower panel)) was “slightly increased total activity for amy-HDEL”, the “total amount of α-amylase (amy) produced (medium+cells)” value ([1]; 24-hour incubation, BFA treatment (FIG. 17)) was “reduction in the total amount of α-amylase” and the “secretion of amy-HDEL, secretion index” value [1, 4] was “hardly influenced by the drug”. For the same compound, the “secretion of α-amylase (amy), secretion index” value [1, 4] was “concentration-dependent inhibition of α-amylase secretion”, the “secretion of amy-spo to the medium” value ([1]; increasing BFA concentration (FIG. 25B)) was “does not induce secretion of the cargo molecule” and the “secretion of amy, secretion index over time” value [2] was “only inhibits the secretion of amy”. The “secretion of amy-HDEL, secretion index over time” value [2] was “slightly induced after prolonged incubation (80 minutes and more)”, the “intracellular processing of the phytepsin precursor” value [3] was “inhibits processing of the phytepsin precursor” and the “secretion of phytepsin precursor to the medium” value [3] was “secretion was inhibited at the lowest concentration of BFA used”.
